Data reported in ChEMBL document CHEMBL1201862, “PubChem BioAssay data set” (2004).
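Interpolation was linear, between the two tested concentrations surrounding the appropriate level; five concentrations were tested over 48 hours in 96-well plates. Abbreviation: GI50, concentration required for 50% inhibition of growth.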 Active and inactive are the calls of the source. Rule as the data show it: active = GI50 up to about 1.1 µM and inactive = higher.

Assays:
Assay in all cases: NCI-60 cell line screen, 48 h
NCI-H460 = system: NCI-H460
HCT-15 = system: HCT-15
HCC 2998 = system: HCC 2998
EKVX = system: EKVX
CAKI-1 = system: CAKI-1
UO-31 = system: UO-31
SF-295 = system: SF-295
IGROV-1 = system: IGROV-1
SK-MEL-28 = system: SK-MEL-28
RPMI-8226 = system: RPMI-8226
SN12C = system: SN12C
SK-MEL-5 = system: SK-MEL-5
NCI-H522 = system: NCI-H522
COLO 205 = system: COLO 205
HL-60 = system: HL-60
SF-268 = system: SF-268
MOLT-4 = system: MOLT-4
OVCAR-8 = system: OVCAR-8
UACC-62 = system: UACC-62
NCI-H226 = system: NCI-H226

Row | SMILES | GI50 (NCI-H460) | GI50 (HCT-15) [µM] | GI50 (HCC 2998) | GI50 (EKVX) | GI50 (CAKI-1) | GI50 (UO-31) | GI50 (SF-295) | GI50 (IGROV-1) | GI50 (SK-MEL-28) | GI50 (RPMI-8226) | GI50 (SN12C) | GI50 (SK-MEL-5) | GI50 (NCI-H522) | GI50 (COLO 205) | GI50 (HL-60) | GI50 (SF-268) | GI50 (MOLT-4) | GI50 (OVCAR-8) | GI50 (UACC-62) | GI50 (NCI-H226)
1 | O=C(CN1CCCCC1)Nc1ccc2sc3ccccc3c(=O)c2n1 | 13.2 µM (inactive) | 12.2 | 14.8 µM (inactive) | 22.7 µM (inactive) | 13.6 µM (inactive) | 9.95 µM (inactive) | 15 µM (inactive) | 16 µM (inactive) | 17.3 µM (inactive) | 13.1 µM (inactive) | 12.5 µM (inactive) | 15.8 µM (inactive) | 6.44 µM (inactive) | 10.8 µM (inactive) | 17.1 µM (inactive) | 24.2 µM (inactive) | 2.69 µM (inactive) | 13.7 µM (inactive) | 15.4 µM (inactive) | 
2 | CCOc1c(OC)cc(CNNc2nccs2)cc1OC | 27 µM (inactive) | 28 | > 100 µM (inactive) | 19.3 µM (inactive) | > 100 µM (inactive) | 71.9 µM (inactive) | > 100 µM (inactive) | > 100 µM (inactive) | > 100 µM (inactive) | 7.03 µM (inactive) | > 100 µM (inactive) | 12.9 µM (inactive) | 52.6 µM (inactive) | 51.4 µM (inactive) | 13.4 µM (inactive) | > 100 µM (inactive) | 28.6 µM (inactive) | > 100 µM (inactive) |  | > 100 µM (inactive)
3 | CSC(=S)N/N=C(\C)c1cccc(C)n1 | 0.456 µM (active) | 0.375 | 3.17 µM (inactive) | 1.16 µM (inactive) | 1.1 µM (active) | 1.21 µM (inactive) | 1.49 µM (inactive) | 1.61 µM (inactive) | 1.46 µM (inactive) |  | 1.28 µM (inactive) | 0.558 µM (active) | 0.0815 µM (active) | 0.0513 µM (active) | 0.0764 µM (active) | 0.708 µM (active) | 0.123 µM (active) | 0.769 µM (active) | 0.472 µM (active) | 0.824 µM (active)
4 | CC(=O)OCC1OC(O[C@@H]2C[C@H]3C(C)(C)[C@@H](OC(C)=O)CC[C@]3(C)[C@H]3CC[C@]45C[C@]4(CC[C@H]5[C@@H](C)C[C@@H](O)[C@H](O)C(C)(C)F)[C@@]32C)C(O)C(O)C1O (some centres undefined) | 16.9 µM (inactive) | 2.48 | 25.9 µM (inactive) | 1.61 µM (inactive) | 63.4 µM (inactive) |  | 24.7 µM (inactive) | 2.06 µM (inactive) | 1.63 µM (inactive) | 1.79 µM (inactive) | 1.73 µM (inactive) | 1.72 µM (inactive) | 1.68 µM (inactive) | 1.78 µM (inactive) | 1.09 µM (active) | 1.47 µM (inactive) | 1.92 µM (inactive) | 2.34 µM (inactive) | 23.9 µM (inactive) | 
5 | CCO/N=[N+](\[O-])N(CC)CC | > 100 µM (inactive) | > 100 | > 100 µM (inactive) | > 100 µM (inactive) | > 100 µM (inactive) | > 100 µM (inactive) | > 100 µM (inactive) | > 100 µM (inactive) | > 100 µM (inactive) |  | > 100 µM (inactive) | > 100 µM (inactive) | > 100 µM (inactive) |  | > 100 µM (inactive) | > 100 µM (inactive) | > 100 µM (inactive) | > 100 µM (inactive) | > 100 µM (inactive) | > 100 µM (inactive)
6 | Cc1cn(C2CC(O)C(COC(=O)NCCC(F)(F)C(F)(F)C(F)(F)C(F)(F)F)O2)c(=O)[nH]c1=O (centres undefined) | > 100 µM (inactive) |  | > 100 µM (inactive) | > 100 µM (inactive) | > 100 µM (inactive) | > 100 µM (inactive) | > 100 µM (inactive) | > 100 µM (inactive) | > 100 µM (inactive) |  | > 100 µM (inactive) | > 100 µM (inactive) | > 100 µM (inactive) | > 100 µM (inactive) | > 100 µM (inactive) | > 100 µM (inactive) | > 100 µM (inactive) | > 100 µM (inactive) | > 100 µM (inactive) | > 100 µM (inactive)
7 | COc1ccc(/C(Cl)=C(\C=O)c2ccc(Cl)cc2)cc1OC | 3.54 µM (inactive) | 3.29 | 14.9 µM (inactive) | 4.47 µM (inactive) | 4.59 µM (inactive) | 4.68 µM (inactive) | 4.15 µM (inactive) | 8.89 µM (inactive) |  | 3.32 µM (inactive) | 3.72 µM (inactive) | 9.25 µM (inactive) | 2.47 µM (inactive) | 3.77 µM (inactive) | 2.55 µM (inactive) | 12.3 µM (inactive) | 2.12 µM (inactive) | 4.03 µM (inactive) | 5.97 µM (inactive) | 4.59 µM (inactive)
8 | O=C(N/N=C(\c1nc2ccc(Cl)cc2nc1O)C(O)c1ccccc1Cl)c1ccncc1 (centres undefined) | > 100 µM (inactive) | > 100 | > 100 µM (inactive) | > 100 µM (inactive) | > 100 µM (inactive) | > 100 µM (inactive) | > 100 µM (inactive) | > 100 µM (inactive) | > 100 µM (inactive) |  |  | > 100 µM (inactive) | > 100 µM (inactive) | > 100 µM (inactive) | > 100 µM (inactive) | > 100 µM (inactive) | > 100 µM (inactive) |  | > 100 µM (inactive) | > 100 µM (inactive)
9 | CC(C)(C)c1cc(S(=O)(=O)O)c2oc(-c3ccccc3)cc(=O)c2c1 | > 100 µM (inactive) | > 100 | > 100 µM (inactive) | > 100 µM (inactive) | > 100 µM (inactive) | > 100 µM (inactive) | > 100 µM (inactive) | > 100 µM (inactive) | > 100 µM (inactive) | > 100 µM (inactive) | > 100 µM (inactive) | > 100 µM (inactive) | > 100 µM (inactive) | > 100 µM (inactive) | > 100 µM (inactive) | > 100 µM (inactive) | > 100 µM (inactive) | > 100 µM (inactive) |  | > 100 µM (inactive)
10 | COC(=O)C(C#N)C1NC(=O)c2ccccc21 (centres undefined) | > 100 µM (inactive) | > 100 | > 100 µM (inactive) | > 100 µM (inactive) |  | > 100 µM (inactive) | > 100 µM (inactive) | > 100 µM (inactive) | > 100 µM (inactive) | > 100 µM (inactive) | > 100 µM (inactive) | > 100 µM (inactive) | > 100 µM (inactive) | > 100 µM (inactive) | > 100 µM (inactive) | > 100 µM (inactive) | > 100 µM (inactive) | > 100 µM (inactive) | > 100 µM (inactive) | > 100 µM (inactive)
11 | C=C(C)CCC1CC=[N+]([O-])OC1C(C)(C)C (centres undefined) | 51.8 µM (inactive) | 26.1 | > 100 µM (inactive) | 68.2 µM (inactive) | 26.2 µM (inactive) | 30.3 µM (inactive) | > 100 µM (inactive) | 34.6 µM (inactive) |  | 41.3 µM (inactive) | 49.4 µM (inactive) | 32.5 µM (inactive) | 24.2 µM (inactive) | 40.1 µM (inactive) | 2.65 µM (inactive) | 58.9 µM (inactive) | 39.2 µM (inactive) | 66.5 µM (inactive) | 36.3 µM (inactive) | 15.5 µM (inactive)
12 | Nc1n[n+](-c2ccccc2)no1 | 27.6 µM (inactive) | 28.1 | 17.4 µM (inactive) | > 100 µM (inactive) | 24.7 µM (inactive) | 83.4 µM (inactive) | 33.8 µM (inactive) | 24.4 µM (inactive) |  | 26.6 µM (inactive) | 82.4 µM (inactive) | 52.7 µM (inactive) | 41.7 µM (inactive) | 45.3 µM (inactive) | 14.9 µM (inactive) | 42 µM (inactive) | 13.3 µM (inactive) | 80 µM (inactive) | 5.37 µM (inactive) | > 100 µM (inactive)
13 | O=C1OC(=O)C2C3C=CC(C12)C1C2C=CC2C31 (centres undefined) | > 100 µM (inactive) |  | > 100 µM (inactive) | > 100 µM (inactive) | > 100 µM (inactive) |  | > 100 µM (inactive) | > 100 µM (inactive) | > 100 µM (inactive) |  | > 100 µM (inactive) |  | > 100 µM (inactive) | > 100 µM (inactive) | > 100 µM (inactive) | > 100 µM (inactive) | > 100 µM (inactive) | > 100 µM (inactive) |  | > 100 µM (inactive)
14 | O=c1cc(-c2ccccc2)oc2cc(OCCCOc3ccc4c(=O)cc(-c5ccccc5)oc4c3)ccc12 | > 100 µM (inactive) | > 100 | > 100 µM (inactive) | > 100 µM (inactive) | > 100 µM (inactive) |  | > 100 µM (inactive) | > 100 µM (inactive) | > 100 µM (inactive) | > 100 µM (inactive) | > 100 µM (inactive) | > 100 µM (inactive) | > 100 µM (inactive) | > 100 µM (inactive) | > 100 µM (inactive) |  | > 100 µM (inactive) | > 100 µM (inactive) | > 100 µM (inactive) | > 100 µM (inactive)
15 | C=C1C(OC(C)=O)CC(OC(C)=O)C2(C)C(OC(C)=O)C(OC(C)=O)C3=C(C)C(OC(=O)/C=C/c4ccccc4)CC(C(OC(C)=O)C12)C3(C)C (centres undefined) | > 100 µM (inactive) | > 100 | > 100 µM (inactive) |  | 33.1 µM (inactive) | > 100 µM (inactive) | 23.9 µM (inactive) | > 100 µM (inactive) |  | > 100 µM (inactive) | > 100 µM (inactive) | > 100 µM (inactive) | 68.1 µM (inactive) | > 100 µM (inactive) | > 100 µM (inactive) | 26.7 µM (inactive) | > 100 µM (inactive) | 46.3 µM (inactive) | > 100 µM (inactive) | 67.3 µM (inactive)
